Laboratory results taken from ChEMBL document CHEMBL3758169, “4-Aminoindazolyl-dihydrofuro[3,4-d]pyrimidines as non-covalent inhibitors of mutant epidermal growth factor receptor tyrosine kinase” (Bioorg Med Chem Lett, 2016).
Values after ≈ are worked out from the molar mass of the structure shown.

Assays:
[1] = biological target: T1, Epidermal growth factor receptor (Homo sapiens, UniProt P00533, L858R/T790M); experiment: Inhibition of EGFR T790M/L858R mutant (unknown origin); assay type: protein assay
T1 sequence (P00533 25-1210 T790M/L858R limits assumed): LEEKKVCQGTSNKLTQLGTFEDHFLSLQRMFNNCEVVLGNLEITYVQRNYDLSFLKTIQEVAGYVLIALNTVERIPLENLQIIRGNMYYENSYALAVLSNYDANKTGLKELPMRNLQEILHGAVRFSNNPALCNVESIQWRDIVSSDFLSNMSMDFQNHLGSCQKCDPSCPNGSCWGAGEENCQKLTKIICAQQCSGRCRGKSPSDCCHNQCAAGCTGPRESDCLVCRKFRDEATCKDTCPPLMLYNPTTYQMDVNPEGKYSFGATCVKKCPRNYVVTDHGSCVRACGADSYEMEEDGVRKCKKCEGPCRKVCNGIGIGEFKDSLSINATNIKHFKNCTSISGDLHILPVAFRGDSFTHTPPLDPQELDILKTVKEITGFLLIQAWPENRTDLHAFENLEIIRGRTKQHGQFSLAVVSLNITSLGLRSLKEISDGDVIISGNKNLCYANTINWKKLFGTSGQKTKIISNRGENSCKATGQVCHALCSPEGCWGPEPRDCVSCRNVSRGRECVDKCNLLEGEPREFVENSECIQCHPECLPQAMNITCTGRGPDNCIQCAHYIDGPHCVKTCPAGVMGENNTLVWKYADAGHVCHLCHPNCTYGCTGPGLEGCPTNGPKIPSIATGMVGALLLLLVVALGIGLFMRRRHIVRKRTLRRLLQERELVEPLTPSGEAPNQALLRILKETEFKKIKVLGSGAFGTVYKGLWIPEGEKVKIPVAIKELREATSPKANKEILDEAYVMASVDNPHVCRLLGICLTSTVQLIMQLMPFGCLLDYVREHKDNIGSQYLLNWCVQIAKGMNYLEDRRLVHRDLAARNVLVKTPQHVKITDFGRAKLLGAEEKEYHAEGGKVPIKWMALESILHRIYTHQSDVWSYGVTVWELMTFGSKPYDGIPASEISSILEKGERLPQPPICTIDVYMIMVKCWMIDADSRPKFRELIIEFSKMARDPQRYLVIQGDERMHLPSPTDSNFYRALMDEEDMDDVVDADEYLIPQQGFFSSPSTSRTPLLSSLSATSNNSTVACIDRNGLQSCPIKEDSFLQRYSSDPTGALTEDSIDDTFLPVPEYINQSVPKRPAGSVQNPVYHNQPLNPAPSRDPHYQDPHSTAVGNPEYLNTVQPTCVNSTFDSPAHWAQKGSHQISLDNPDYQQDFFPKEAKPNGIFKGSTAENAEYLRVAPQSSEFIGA

[2] = Plasma clearance in iv dosed rat; assay type: ADME, organism-based
[3] = Apparent permeability from the apical to basolateral side in MDCK cells; assay type: ADME, cell-based, Canis lupus familiaris; settings: dog
[4] = Efflux ratio of permeability from basolateral to apical side over apical to basolateral side in MDCK cells; assay type: ADME, cell-based, Canis lupus familiaris; settings: dog
[5] = Volume of distribution at steady state in rat; assay type: ADME, organism-based; settings: in vivo, read-out: Vdss
Hepatocyte [6] = experiment: Drug metabolism in human hepatocytes assessed as glucuronidation; assay type: ADME, cell-based
[7] = Kinetic solubility of compound; assay type: physicochemical; settings: read-out: Kinetic_solubility
[8] = Total AUC in rat at 5 mg/kg, po; assay type: ADME, organism-based; design: dose 5 mg/kg, time AUCmax, route oral; settings: in vivo
[9] = Oral bioavailability in rat at 5 mg/kg; assay type: ADME, organism-based; settings: in vivo
Rattus norvegicus = experiment: Unbound AUC in rat at 5 mg/kg, po; assay type: ADME, organism-based; settings: in vivo
Hepatocyte [10] = experiment: Drug metabolism in rat hepatocytes assessed as glucuronidation; assay type: ADME, cell-based
[11] = biological target: T2, Epidermal growth factor receptor (Homo sapiens, UniProt P00533); experiment: Inhibition of EGFR T790M/deletion (746 to 750 residues) mutant (unknown origin); assay type: protein assay
Target sequence in this assay (P00533 25-1210 limits assumed, stated change not applied): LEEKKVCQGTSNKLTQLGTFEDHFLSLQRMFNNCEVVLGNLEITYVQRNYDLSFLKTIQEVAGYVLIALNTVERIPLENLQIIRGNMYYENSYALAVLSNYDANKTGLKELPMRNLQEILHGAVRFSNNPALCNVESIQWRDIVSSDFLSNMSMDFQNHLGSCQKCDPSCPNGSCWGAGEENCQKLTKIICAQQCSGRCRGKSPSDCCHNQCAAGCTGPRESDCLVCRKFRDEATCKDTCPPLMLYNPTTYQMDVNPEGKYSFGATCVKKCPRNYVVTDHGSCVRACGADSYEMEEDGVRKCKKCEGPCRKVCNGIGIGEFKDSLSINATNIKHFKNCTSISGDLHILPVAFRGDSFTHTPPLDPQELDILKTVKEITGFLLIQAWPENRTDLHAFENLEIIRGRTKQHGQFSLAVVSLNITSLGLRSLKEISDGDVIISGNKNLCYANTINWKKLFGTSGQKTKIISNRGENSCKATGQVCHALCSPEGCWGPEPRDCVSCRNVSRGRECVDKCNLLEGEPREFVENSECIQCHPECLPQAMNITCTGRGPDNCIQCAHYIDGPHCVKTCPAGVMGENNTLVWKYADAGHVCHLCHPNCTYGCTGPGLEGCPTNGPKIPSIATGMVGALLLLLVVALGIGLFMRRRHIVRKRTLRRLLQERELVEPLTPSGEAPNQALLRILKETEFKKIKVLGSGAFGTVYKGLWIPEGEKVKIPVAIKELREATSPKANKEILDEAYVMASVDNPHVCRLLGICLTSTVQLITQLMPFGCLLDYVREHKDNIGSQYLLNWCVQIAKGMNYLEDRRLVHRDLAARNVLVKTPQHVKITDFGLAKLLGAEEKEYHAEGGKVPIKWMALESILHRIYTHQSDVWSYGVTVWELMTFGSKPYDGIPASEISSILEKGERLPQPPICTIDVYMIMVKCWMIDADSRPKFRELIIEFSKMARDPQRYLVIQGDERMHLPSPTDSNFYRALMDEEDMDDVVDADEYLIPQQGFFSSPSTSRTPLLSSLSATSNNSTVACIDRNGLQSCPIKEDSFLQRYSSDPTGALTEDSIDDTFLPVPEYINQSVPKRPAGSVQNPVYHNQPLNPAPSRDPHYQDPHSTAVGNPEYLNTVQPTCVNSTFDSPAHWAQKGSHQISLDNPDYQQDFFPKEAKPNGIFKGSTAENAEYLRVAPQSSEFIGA

[12] = biological target: T1, Epidermal growth factor receptor; experiment: Inhibition of EGFR T790M/L858R mutant autophosphorylation in human H1975 cells; assay type: cell-based
[13] = biological target: T2, Epidermal growth factor receptor; experiment: Inhibition of EGFR deletion (746 to 750 residues) mutant (unknown origin); assay type: protein assay
Target sequence in this assay (P00533 25-1210 limits assumed, stated change not applied): as above

[14] = biological target: T2, Epidermal growth factor receptor; experiment: Inhibition of wild type EGFR (unknown origin)
Target sequence in this assay (P00533 whole entry, the tested form may be a part): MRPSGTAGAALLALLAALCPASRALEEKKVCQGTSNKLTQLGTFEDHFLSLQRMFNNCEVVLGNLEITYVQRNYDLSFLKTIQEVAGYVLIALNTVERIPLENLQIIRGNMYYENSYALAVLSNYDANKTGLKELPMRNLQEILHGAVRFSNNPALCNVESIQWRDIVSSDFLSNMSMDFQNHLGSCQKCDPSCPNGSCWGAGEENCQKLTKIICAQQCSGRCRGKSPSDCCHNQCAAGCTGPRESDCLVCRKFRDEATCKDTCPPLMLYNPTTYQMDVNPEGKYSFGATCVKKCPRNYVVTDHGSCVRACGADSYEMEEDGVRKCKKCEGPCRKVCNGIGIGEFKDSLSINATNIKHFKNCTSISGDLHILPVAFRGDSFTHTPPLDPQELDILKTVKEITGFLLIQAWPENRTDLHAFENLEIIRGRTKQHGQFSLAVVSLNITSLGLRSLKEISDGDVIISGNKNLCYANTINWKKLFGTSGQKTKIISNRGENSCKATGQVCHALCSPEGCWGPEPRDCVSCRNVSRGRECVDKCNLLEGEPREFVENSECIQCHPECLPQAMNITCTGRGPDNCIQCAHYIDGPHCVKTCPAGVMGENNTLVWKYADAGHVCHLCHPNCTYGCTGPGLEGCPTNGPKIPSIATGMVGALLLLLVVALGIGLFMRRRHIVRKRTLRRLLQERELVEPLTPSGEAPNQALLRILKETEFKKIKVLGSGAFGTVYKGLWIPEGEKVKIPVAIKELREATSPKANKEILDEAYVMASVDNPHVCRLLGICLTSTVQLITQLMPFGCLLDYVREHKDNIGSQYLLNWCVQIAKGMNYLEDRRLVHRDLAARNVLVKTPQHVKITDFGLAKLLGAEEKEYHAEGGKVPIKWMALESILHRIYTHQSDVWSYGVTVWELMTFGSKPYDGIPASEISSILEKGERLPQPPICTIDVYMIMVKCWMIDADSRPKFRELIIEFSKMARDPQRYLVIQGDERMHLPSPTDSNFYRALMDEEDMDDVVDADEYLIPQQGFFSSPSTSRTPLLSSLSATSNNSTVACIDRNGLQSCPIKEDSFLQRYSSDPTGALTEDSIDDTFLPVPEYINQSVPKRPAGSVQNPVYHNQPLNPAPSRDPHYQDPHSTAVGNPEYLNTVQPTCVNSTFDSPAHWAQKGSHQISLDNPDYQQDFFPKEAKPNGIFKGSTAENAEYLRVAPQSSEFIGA

[15] = biological target: Epidermal growth factor receptor (Homo sapiens, UniProt P00533, L858R); experiment: Inhibition of EGFR L858R mutant (unknown origin); assay type: protein assay
Sequence of Epidermal growth factor receptor (Homo sapiens, UniProt P00533, L858R) (P00533 25-1210 L858R limits assumed): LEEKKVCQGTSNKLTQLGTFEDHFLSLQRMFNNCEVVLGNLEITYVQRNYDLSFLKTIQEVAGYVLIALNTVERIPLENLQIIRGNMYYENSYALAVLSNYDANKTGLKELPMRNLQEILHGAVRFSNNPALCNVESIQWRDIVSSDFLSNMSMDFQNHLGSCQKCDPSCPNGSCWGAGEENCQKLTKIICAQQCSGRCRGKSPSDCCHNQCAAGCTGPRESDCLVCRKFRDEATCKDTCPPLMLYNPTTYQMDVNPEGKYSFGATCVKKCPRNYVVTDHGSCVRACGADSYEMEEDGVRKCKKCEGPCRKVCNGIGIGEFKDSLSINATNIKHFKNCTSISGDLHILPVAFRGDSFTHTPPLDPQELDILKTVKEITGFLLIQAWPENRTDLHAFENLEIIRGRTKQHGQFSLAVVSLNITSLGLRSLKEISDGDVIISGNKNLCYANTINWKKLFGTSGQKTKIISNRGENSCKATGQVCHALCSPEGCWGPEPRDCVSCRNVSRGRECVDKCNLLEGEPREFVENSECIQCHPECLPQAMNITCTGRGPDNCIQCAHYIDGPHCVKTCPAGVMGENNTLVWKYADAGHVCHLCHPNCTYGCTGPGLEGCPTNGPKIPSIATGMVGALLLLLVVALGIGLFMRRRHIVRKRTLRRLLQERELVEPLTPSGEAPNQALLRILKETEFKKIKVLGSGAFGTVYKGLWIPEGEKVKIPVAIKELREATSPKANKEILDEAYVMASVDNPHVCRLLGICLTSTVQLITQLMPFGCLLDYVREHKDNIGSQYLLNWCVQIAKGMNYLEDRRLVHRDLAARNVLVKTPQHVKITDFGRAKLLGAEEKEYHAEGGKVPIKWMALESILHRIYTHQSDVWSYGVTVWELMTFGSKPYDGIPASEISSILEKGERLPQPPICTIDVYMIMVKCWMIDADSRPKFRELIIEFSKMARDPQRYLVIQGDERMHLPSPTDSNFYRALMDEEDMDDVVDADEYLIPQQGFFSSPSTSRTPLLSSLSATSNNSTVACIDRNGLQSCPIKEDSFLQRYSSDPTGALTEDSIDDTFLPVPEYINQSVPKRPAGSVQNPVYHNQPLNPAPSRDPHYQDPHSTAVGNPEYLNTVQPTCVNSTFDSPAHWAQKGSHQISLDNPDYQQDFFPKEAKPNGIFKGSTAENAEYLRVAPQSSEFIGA

[16] = biological target: Receptor-type tyrosine-protein kinase FLT3 (Homo sapiens) (UniProt P36888); experiment: Inhibition of FLT3 (unknown origin) at 1000 nM
[17] = biological target: Aurora kinase B (Homo sapiens) (UniProt Q96GD4); experiment: Inhibition of Aurora B (unknown origin) at 1000 nM
[18] = biological target: Dual specificity mitogen-activated protein kinase kinase 1 (Homo sapiens) (UniProt Q02750); experiment: Inhibition of MEK1 (unknown origin) at 1000 nM
[19] = biological target: High affinity nerve growth factor receptor (Homo sapiens) (UniProt P04629); experiment: Inhibition of TRKA (unknown origin) at 1000 nM
[20] = Drug excretion in iv dosed rat urine assessed as oxidative metabolite; assay type: ADME, organism-based; settings: in vivo
[21] = tested on: RAF proto-oncogene serine/threonine-protein kinase (Homo sapiens), P04049 [Y340D,Y341D]; experiment: Inhibition of RAF1 Y340D/Y341D double mutant (unknown origin) at 1000 nM
[22] = biological target: Tyrosine-protein kinase Lck (Homo sapiens) (UniProt P06239); experiment: Inhibition of LCK (unknown origin) at 1000 Nm
[23] = biological target: Mitogen-activated protein kinase 1 (Homo sapiens) (UniProt P28482); experiment: Inhibition of ERK2 (unknown origin) at 1000 nM
[24] = Drug excretion in iv dosed rat bile assessed as oxidative metabolite; assay type: ADME, organism-based; settings: in vivo
[25] = biological target: Ribosomal protein S6 kinase beta-1 (Homo sapiens) (UniProt P23443); experiment: Inhibition of p70S6K(unknown origin) at 1000 nM
[26] = biological target: Proto-oncogene tyrosine-protein kinase Src (Homo sapiens) (UniProt P12931); experiment: Inhibition of SRC (unknown origin) at 1000 nM
[27] = biological target: Receptor tyrosine-protein kinase erbB-2 (Homo sapiens) (UniProt P04626); experiment: Inhibition of ERBB2 (unknown origin) at 1000 nM
[28] = biological target: Receptor tyrosine-protein kinase erbB-4 (Homo sapiens) (UniProt Q15303); experiment: Inhibition of ERBB4 (unknown origin) at 1000 nM
[29] = Drug excretion in iv dosed rat urine assessed as glucuronide metabolite; assay type: ADME, organism-based; settings: in vivo
[30] = biological target: Tyrosine-protein kinase JAK2 (Homo sapiens) (UniProt O60674); experiment: Inhibition of JAK2 (unknown origin) at 1000 nM
[31] = biological target: Serine/threonine-protein kinase Chk1 (Homo sapiens) (UniProt O14757); experiment: Inhibition of CHK1 (unknown origin) at 1000 nM
[32] = biological target: CDK2/Cyclin A2 (Homo sapiens) (UniProt P24941+P20248); experiment: Inhibition of CDK2/cyclinA (unknown origin) at 1000 nM; assay type: protein-complex assay
[33] = biological target: T3, Inhibitor of nuclear factor kappa-B kinase subunit epsilon (Homo sapiens) (UniProt Q14164); experiment: Inhibition of IKKepsilon (unknown origin) at 1000 nM
T3 sequence (whole entry): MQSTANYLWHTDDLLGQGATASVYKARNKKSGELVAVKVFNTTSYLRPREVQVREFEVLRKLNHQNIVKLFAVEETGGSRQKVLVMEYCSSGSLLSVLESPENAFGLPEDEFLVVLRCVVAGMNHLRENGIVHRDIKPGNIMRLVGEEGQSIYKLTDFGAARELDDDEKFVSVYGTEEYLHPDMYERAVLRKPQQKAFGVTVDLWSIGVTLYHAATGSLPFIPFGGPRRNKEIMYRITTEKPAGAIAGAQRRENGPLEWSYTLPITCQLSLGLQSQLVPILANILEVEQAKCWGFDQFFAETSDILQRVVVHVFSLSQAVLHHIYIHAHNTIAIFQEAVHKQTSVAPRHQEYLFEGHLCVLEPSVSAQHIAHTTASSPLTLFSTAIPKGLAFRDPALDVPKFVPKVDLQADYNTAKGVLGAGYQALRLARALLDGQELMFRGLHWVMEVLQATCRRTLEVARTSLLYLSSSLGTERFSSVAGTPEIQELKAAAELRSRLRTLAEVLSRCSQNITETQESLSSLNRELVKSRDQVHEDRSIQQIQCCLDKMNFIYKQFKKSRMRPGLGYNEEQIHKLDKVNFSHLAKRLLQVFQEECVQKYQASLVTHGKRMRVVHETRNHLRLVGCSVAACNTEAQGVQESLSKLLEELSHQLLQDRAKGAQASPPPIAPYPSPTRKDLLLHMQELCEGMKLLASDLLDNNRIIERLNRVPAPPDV

[34] = biological target: Vascular endothelial growth factor receptor 2 (Homo sapiens) (UniProt P35968); experiment: Inhibition of KDR (unknown origin) at 1000 nM
[35] = Drug excretion in iv dosed rat bile assessed as glucuronide metabolite; assay type: ADME, organism-based; settings: in vivo
[36] = tested on: Epidermal growth factor receptor (Homo sapiens), P00533 [L858R,T790M]; experiment: Inhibition of EGFR T790M/L858R double mutant (unknown origin) at 1000 nM; assay type: protein assay

CC1(C)OCc2c(Nc3n[nH]c(Cl)c3Cl)nc(-c3cn[nH]c3)nc21
Ki [1]: 389 nM

CC1(C)OCc2c(Nc3n[nH]c4cc(C(F)(F)F)ccc34)nc(-c3cn[nH]c3)nc21
Ki [1]: > 2000 nM
clearance [2]: 91 mL/min/kg
Papp A→B [3]: 10.3 ×10⁻⁶ cm/s
efflux ratio [4]: 1.5
Vd [5]: 1.2 L/kg

CC1(C)OCc2c(Nc3n[nH]c4c(F)cccc34)nc(-c3cn[nH]c3)nc21
Ki [1]: 3 nM

CC1(C)OCc2c(Oc3n[nH]c4ccccc34)nc(-c3cn[nH]c3)nc21
Ki [1]: 85 nM

CC1(C)OCc2c(Nc3n[nH]c4ccccc34)nc(-c3cc[nH]n3)nc21
Ki [1]: 175 nM

CC1(C)OCc2c(Nc3n[nH]c4c(C(F)(F)F)cccc34)nc(-c3cn[nH]c3)nc21
Ki [1]: 134 nM
clearance [2]: 27 mL/min/kg
Papp A→B [3]: 8.5 ×10⁻⁶ cm/s
Drug metabolism (Hepatocyte [6]): metabolite_detected
solubility kinetic [7]: 3 µM (≈ 1.25 µg/mL)
AUC [8]: 0.36 µM·h
efflux ratio [4]: 1.3
Vd [5]: 2.4 L/kg
bioavailability [9]: 5%
fAUC (Rattus norvegicus): 0.03 µM·h
Drug metabolism (Hepatocyte [10]): metabolite_detected

CC1(C)OCc2c(Nc3c[nH]c4ccccc34)nc(-c3cn[nH]c3)nc21
Ki [1]: 17 nM

CC1(C)OCc2c(Nc3n[nH]c4cc(F)ccc34)nc(-c3cn[nH]c3)nc21
Ki [1]: 2 nM

CC1(C)OCc2c(Nc3n[nH]c4ccc(F)cc34)nc(-c3cn[nH]c3)nc21
Ki [1]: 8 nM
clearance [2]: 81 mL/min/kg
Drug metabolism (Hepatocyte [6]): metabolite_detected
Vd [5]: 6.8 L/kg
Drug metabolism (Hepatocyte [10]): metabolite_detected

CN(c1nc(-c2cn[nH]c2)nc2c1COC2(C)C)c1n[nH]c2ccccc12
Ki [1]: 519 nM

CC1(C)OCc2c(Nc3n[nH]c4ccccc34)nc(-c3c[nH]nn3)nc21
Ki [1]: 732 nM

CC1(C)OCc2c(Nc3n[nH]c4ccccc34)nc(-c3cscn3)nc21
Ki [1]: 5.6 nM

CC1(C)OCc2c(Nc3n[nH]c4cc(Cl)ccc34)nc(-c3cn[nH]c3)nc21
Ki [1]: 22.4 nM

Cn1nccc1-c1nc(Nc2n[nH]c3ccccc23)c2c(n1)C(C)(C)OC2
Ki [11]: 21.3 nM
Ki [1]: 34.3 nM
clearance [2]: 38 mL/min/kg
Papp A→B [3]: 12.9 ×10⁻⁶ cm/s
IC50 [12]: 3000 nM
Ki [13]: < 0.5 nM
Ki [14]: 1.1 nM
AUC [8]: 7.5 µM·h
efflux ratio [4]: 0.9
Vd [5]: 2.3 L/kg
bioavailability [9]: 117%
Ki [15]: < 0.5 nM
fAUC (Rattus norvegicus): 0.23 µM·h

CC1(C)OCc2c(Nc3nc4ccccc4s3)nc(-c3cn[nH]c3)nc21
Ki [1]: > 2000 nM

CC1(C)OCc2c(Nc3nsc4ccccc34)nc(-c3cn[nH]c3)nc21
Ki [1]: 747 nM

CC1(C)OCc2c(Nc3n[nH]c4c(F)cc(F)cc34)nc(-c3cn[nH]c3)nc21
Ki [1]: 10.4 nM

CC1(C)OCc2c(C(=O)c3n[nH]c4ccccc34)nc(-c3cn[nH]c3)nc21
Ki [1]: 104 nM

Cc1cc(Nc2nc(-c3cn[nH]c3)nc3c2COC3(C)C)n[nH]1
Ki [1]: 844 nM

CC1(C)OCc2c(Nc3n[nH]c4c(Cl)cc(F)cc34)nc(-c3cn[nH]c3)nc21
Ki [1]: 16 nM

CC1(C)OCc2c(Nc3n[nH]c4c(Cl)cccc34)nc(-c3cn[nH]c3C(F)F)nc21
Ki [11]: 2.5 nM
Ki [1]: 9 nM
clearance [2]: 36 mL/min/kg
inhibition [16]: 38.1%
inhibition [17]: -7%
inhibition [18]: -4.5%
Papp A→B [3]: 8.4 ×10⁻⁶ cm/s
IC50 [12]: 370 nM
inhibition [19]: 15.3%
Drug excretion [20]: metabolite_detected
inhibition [21]: 38.4%
Ki [13]: 1.7 nM
inhibition [22]: 85.7%
inhibition [23]: 4.5%
Drug excretion [24]: metabolite_detected
inhibition [25]: 2.7%
Ki [14]: 6.5 nM
solubility kinetic [7]: 3 µM (≈ 1.3 µg/mL)
AUC [8]: 3.4 µM·h
inhibition [26]: 47.6%
efflux ratio [4]: 0.7
Vd [5]: 3.3 L/kg
inhibition [27]: 91.8%
inhibition [28]: 97%
Drug excretion [29]: metabolite_detected
inhibition [30]: 10.1%
inhibition [31]: 6.9%
inhibition [32]: -4%
inhibition [33]: 1.9%
bioavailability [9]: 62%
inhibition [34]: 96.4%
Ki [15]: 3.4 nM
fAUC (Rattus norvegicus): 0.09 µM·h
Drug excretion [35]: metabolite_detected
inhibition [36]: 90.8%

CC1(C)OCc2c(Nc3n[nH]c4c3CCCC4)nc(-c3cn[nH]c3)nc21
Ki [1]: > 2000 nM

Cn1nc(Nc2nc(-c3cn[nH]c3)nc3c2COC3(C)C)c2cccc(F)c21
Ki [1]: 57 nM
clearance [2]: 60 mL/min/kg
Vd [5]: 1.5 L/kg

CC1(C)OCc2c(Nc3n[nH]c4c(Cl)c(F)ccc34)nc(-c3cn[nH]c3)nc21
Ki [1]: 4 nM
clearance [2]: 60 mL/min/kg
Papp A→B [3]: 7.3 ×10⁻⁶ cm/s
efflux ratio [4]: 1.1
Vd [5]: 5.5 L/kg

CC1(C)OCc2c(Nc3n[nH]c4ccncc34)nc(-c3cn[nH]c3)nc21
Ki [1]: > 2000 nM

CC1(C)OCc2c(Nc3n[nH]c4cccc(F)c34)nc(-c3cn[nH]c3)nc21
Ki [1]: 17 nM
